Publication PMC12631985 (Environmental Science & Technology, 2025)

Experiments:
[1] = tested on: AR mRNA; assay: Quantitative RT-PCR for DHT-induced AR mRNA expression in 22Rv1/MMTV-GRKO cells; type: cell-based, human; settings: with DHT; highest noncytotoxic concentration (≥80% viability); n = 3
[2] = tested on: AR protein expression; assay: Western blot for DHT-induced AR protein expression; settings: highest noncytotoxic concentration (≥80% viability), n = 3
[3] = tested on: zebrafish; settings: previous research; ref number not printed at the place; cited from earlier work

Compound | reduction in AR mRNA levels compared to the DHT-only treatment group [1] [%] | suppression level of DHT-induced AR protein expression compared with the DHT-only treatment group [2] [%] | toxicity in zebrafish [3]
CCCOC/C(=N\c1ccc(Cl)cc1C(F)(F)F)n1ccnc1 [triflumizole] | 26.5 |  | 
N#CC(CCc1ccc(Cl)cc1)(Cn1cncn1)c1ccccc1 (centres unmarked) [fenbuconazole] | 45.0 | 24.6 | significantly impaired mitochondrial function and locomotor activity
C[Si](Cn1cncn1)(c1ccc(F)cc1)c1ccc(F)cc1 [flusilazole] | 60.4 |  | 
CC1(C)CCC(Cc2ccc(Cl)cc2)C1(O)Cn1cncn1 (centres unmarked) [metconazole] | 27.8 |  | 
Fc1ccc([C@]2(Cn3cncn3)O[C@H]2c2ccccc2Cl)cc1 (racemic) [epoxiconazole] | 59.0 |  | 
CC(C)(C)C(O)(CCc1ccc(Cl)cc1)Cn1cncn1 (centres unmarked) [tebuconazole] | 37.5 |  | 
